Data set [1] concerns HIV-1 (IIIB) in MT-4 cells. Put plainly: microbe, parasite or virus in culture. The following applies: Human immunodeficiency virus 1, IIIB, MT4, MT-4 cells, HIV-1; read-out: MT4 EC50. The data set is classed as cell-based.
The nature of data set [2]: Liver microsomal stability, human liver microsomes. The following applies: human, liver microsomes. The procedure: Liver Microsomal Stability Protocol
Test compounds and one control compound (verapamil) were tested in 3 different species in duplicate sets.
Test compound concentration: 1 uM; Protein concentration: 0.5 mg/mL (for dog, rat, and human liver microsomes); Cofactor: NADPH-Regenerating system (NRS) solution; Time-points: 2, 12, 25, 45, and 65 minutes.
Reaction Composition (in Each Incubation Well) Contains:
At an incubation temperature of 37° C., the reaction was started with addition of NADPH Regeneration System, at each time point, 25 uL of the reaction mixture was removed and added to a plate with 225 uL quenching solution (50% MeOH, 25% ACN, 25% H2O, and 200 nM labetalol as internal standard). After plates were vortexed, they were centrifuged for 30 minutes to remove proteins. About 100 μL supernatant was removed to a new plate and diluted with 150 μL water. About 20 μL of the mixture was injected into LC/MS/MS system to monitor the compound's response. In vitro measured t1/2 was used to calculate Clint values.
(In general: Liver microsomes are a subcellular fraction often used to study metabolism.)

Each structure is given as a SMILES string.

As a reminder, the EC50 is the concentration giving half of the maximal effect. As usually defined, the half-life is the time in which the quantity being followed falls by half.

For the compound `CC(C)(C[C@]1(c2ccc(-c3cnn(C4CC4)c3)cc2)NC(=N)N([C@H](COC(=O)NC2(C(F)(F)F)CC2)c2ccc(Cl)c(-c3ncnn3C(F)F)c2)C1=O)C(F)(F)F` [Compound 135], in data set [1], the EC50 was determined as 13.6 nM. Moreover, the half-life at 1 uM in data set [2] is at least 6.58 h.

`CC(C)(C)C[C@]1(c2ccc(-c3cnn(C(F)F)c3)cc2)NC(=N)N([C@H](COC(=O)NC2(C(F)(F)F)CC2)c2ccc(Cl)c(-c3ccccn3)c2)C1=O` [Compound 20]: in data set [1], the EC50 came to 76.7 nM. In data set [2], this compound showed a half-life at 1 uM of at least 6.58 h.

Take `CC(C)(C)C[C@]1(c2ccc(-c3cnn(C(F)F)c3)cc2)NC(=N)N([C@H](COC(=O)NC2(C(F)(F)F)CC2)c2ccc(Cl)c(-c3nnn[nH]3)c2)C1=O` [Compound 72]: the EC50 in data set [1] stood at 5710 nM. The half-life at 1 uM in data set [2] was at least 6.58 h.

On to `CC(C)(C)C[C@]1(c2ccc(-c3cnn(C4CC4)n3)cc2F)NC(=N)N([C@H](COC(=O)NC2(C(F)(F)F)CC2)c2ccc(Cl)c(-n3ncnc3C(F)F)c2)C1=O` [Compound 224], for which the EC50 in data set [1] amounted to 19.5 nM. Further, the half-life at 1 uM in data set [2] was at least 6.58 h.

`CC(C)(C)C[C@]1(c2ccc(-c3cnn(C(F)F)c3)cc2)NC(=N)N([C@H](COC(=O)NC2CC2)c2ccc(Cl)c(-c3nccc(=O)[nH]3)c2)[C@H]1O` [Compound 17]: in data set [1], the EC50 came out at 556 nM. The half-life at 1 uM in data set [2] is at least 6.58 h.

For the compound `CC(C)(C)C[C@]1(c2ccc(-c3cnn(C4CC4)c3)cc2Cl)NC(=N)N([C@H](COC(=O)NC2(C(F)(F)F)CC2)c2ccc(Cl)c(-n3ncnc3C(F)F)c2)C1=O` [Compound 317], the EC50 in data set [1] came out at 99.1 nM. In addition, the half-life at 1 uM in data set [2] was at least 6.58 h.

With `CC(C)(C)C[C@]1(c2ccc(C#Cc3cnn(C(F)F)c3)c(F)c2)NC(=N)N([C@H](COC(=O)NC2(C(F)(F)F)CC2)c2ccc(Cl)c(-n3ncnc3C(F)F)c2)C1=O` [Compound 361], in data set [1], the EC50 turned out to be 82 nM. The compound also came in with a half-life at 1 uM in data set [2] of at least 6.58 h.

Take `CC(C)(F)C[C@]1(c2ccc(-c3cnn(C(F)F)c3)cc2)NC(=N)N([C@H](COC(=O)NC(C)(C)C(F)F)c2ccc(Cl)c(-c3ncnn3C(F)F)c2)C1=O` [Compound 129]: in data set [1], the EC50 was determined as 27.3 nM. Moreover, the half-life at 1 uM in data set [2] was at least 6.58 h.

With `CC(C)(C)C[C@]1(c2ccc(-c3cnn(C(F)F)c3)cc2)NC(=N)N([C@H](COC(=O)NC(C)(C)C(F)F)c2ccc(Cl)c(-c3ncn[nH]3)c2)C1=O` [Compound 78], the EC50 in data set [1] stood at 74.9 nM. The compound also came in with a half-life at 1 uM in data set [2] of at least 6.58 h.

With `C[C@H](NC(=O)OC[C@H](c1ccc(Cl)c(-c2ncnn2C(F)F)c1)N1C(=N)N[C@](CC(C)(C)C(F)(F)F)(c2ccc(-c3cnn(C4CC4)n3)cc2)C1=O)C(F)(F)F` [Compound 153], in data set [1], the EC50 worked out at 14 nM. In data set [2], this compound showed a half-life at 1 uM of at least 6.58 h.

On to `[H]/N=C1\N[C@](CC(C)(C)C)(c2ccc(-c3cnn(C(F)F)c3)cc2)C(=O)N1[C@H](COC(=O)NC1CC1)c1ccc(Cl)c(-c2ncn(C(F)F)n2)c1` [Compound 34], for which the EC50 in data set [1] came out at 38.7 nM. The half-life at 1 uM in data set [2] was at least 6.58 h.

Turning to `CC(C)(C)C[C@]1(c2ccc(-c3cnn(C4CC4)n3)cc2)NC(=N)N([C@H](CNS(=O)(=O)C2CC2)c2ccc(Cl)c(-n3ncnc3C(F)F)c2)C1=O` [Compound 387], the EC50 in data set [1] amounted to 47.9 nM. Moreover, the half-life at 1 uM in data set [2] was at least 6.58 h.

Regarding `CC(C)(C)C[C@]1(c2ccc3nc(C#Cc4ccccc4)ccc3c2)NC(=N)N([C@H](COC(=O)NC2(C(F)(F)F)CC2)c2ccc(Cl)c(-n3ncnc3C(F)F)c2)C1=O` (stereo in doubt) [Compound 360], the EC50 in data set [1] worked out at 79.9 nM. For the same compound, the half-life at 1 uM in data set [2] was at least 6.58 h.

Turning to `CC(C)(C#N)C[C@]1(c2ccc(-c3ccn(C(F)F)n3)cc2)NC(=N)N([C@H](COC(=O)NC2(C(F)(F)F)CC2)c2ccc(Cl)c(-n3ncnc3C(F)F)c2)C1=O` [Compound 336], the EC50 in data set [1] was found to be 74.7 nM. The half-life at 1 uM in data set [2] is at least 6.58 h.

For the compound `C[C@H](NC(=O)OC[C@H](c1ccc(Cl)c(-c2ncnn2C(F)F)c1)N1C(=N)N[C@](CC(C)(C)C)(c2ccc(-c3cnn(C(F)F)n3)cc2)C1=O)C(F)(F)F` [Compound 163], in data set [1], the EC50 came out at 9.06 nM. The compound also yielded a half-life at 1 uM in data set [2] of at least 6.58 h.

For the compound `CC(C)(F)C[C@]1(c2ccc(-c3cnn(C(F)F)c3)cc2)NC(=N)N([C@H](COC(=O)NC2(C(F)(F)F)CC2)c2ccc(Cl)c(-c3ncnn3C(F)F)c2)C1=O` [Compound 134], the concentration for a half-maximal effect (EC50) in data set [1] turned out to be 18.5 nM. In data set [2], this compound registered a half-life at 1 uM of at least 6.58 h.

Regarding `CC(C)(C)C[C@]1(c2ccc(-c3cnn(C(F)F)c3)cc2)NC(=N)N([C@H](COC(=O)NC(C)(C)C(F)F)c2ccc(Cl)c(-c3nncn3C(F)F)c2)C1=O` [Compound 91], the EC50 in data set [1] came to 200 nM. Besides, the half-life at 1 uM in data set [2] is at least 6.58 h.

As to `[2H]C([2H])([2H])n1cnc(-c2cc([C@@H](COC(=O)NC(C)(C)C(F)F)N3C(=N)N[C@](C[C@]4(C)CC4(F)F)(c4ccc(-c5cnn(C(F)F)c5)cc4)C3=O)ccc2Cl)n1` [Compound 97], in data set [1], the half-maximal effective concentration (EC50) turned out to be 18.9 nM. In data set [2], this compound yielded a half-life at 1 uM of at least 6.58 h.

Take `CC(C)(C)C[C@]1(c2ccc(-c3cnn(C(F)F)c3)cc2F)NC(=N)N([C@H](COC(=O)NC2(C(F)(F)F)CC2)c2ccc(Cl)c(-c3ncn[nH]3)c2)C1=O` [Compound 110]: the EC50 in data set [1] was found to be 96 nM. This compound also gave a half-life at 1 uM in data set [2] of at least 6.58 h.

`CC(C)(C)C[C@]1(c2ccc(-c3cn(C4CC4)nn3)c(F)c2)NC(=N)N([C@H](COC(=O)NC2(C(F)(F)F)CC2)c2ccc(Cl)c(-n3ncnc3C(F)F)c2)C1=O` [Compound 352]: in data set [1], the EC50 came out at 10.9 nM. The same compound yielded a half-life at 1 uM in data set [2] of at least 6.58 h.

As for `CC(C)C[C@]1(c2ccc(-c3cnn(C(F)F)c3)cc2F)NC(=N)N([C@H](COC(=O)NC2(C(F)(F)F)CC2)c2ccc(Cl)c(-n3ncnc3C(F)F)c2)C1=O` [Compound 278], the EC50 in data set [1] came out at 23.6 nM. In data set [2], the half-life at 1 uM was at least 6.58 h.

With `Cn1ccc(-c2ccc([C@@]3(CC(C)(C)C)NC(=N)N([C@H](COC(=O)NC4(C(F)(F)F)CC4)c4ccc(Cl)c(-n5ncnc5C(F)F)c4)C3=O)cc2F)n1` [Compound 289], in data set [1], the 50% effective concentration (EC50) stood at 8.26 nM. In addition, the half-life at 1 uM in data set [2] was at least 6.58 h.

Turning to `CC(C)(C[C@]1(c2ccc(-c3cnn(S(C)(=O)=O)c3)cc2)NC(=N)N([C@H](COC(=O)NC2(C(F)(F)F)CC2)c2ccc(Cl)c(-n3ncnc3C(F)F)c2)C1=O)C(F)(F)F` [Compound 308], in data set [1], the EC50 is 16.3 nM. In data set [2], this compound showed a half-life at 1 uM of at least 6.58 h.

Consider `CC(C)(C)C[C@]1(c2ccc(-c3cnn(C(F)F)c3)cc2)NC(=N)N([C@H](COC(=O)NC(C)(C)C(F)(F)F)c2ccc(Cl)c(-n3ncnc3C(F)F)c2)C1=O` [Compound 182], for which the EC50 in data set [1] stood at 12 nM. In data set [2], this compound returned a half-life at 1 uM of at least 6.58 h.

Consider `CC(C)(C[C@]1(c2ccc(-c3cnn(C4CC4)n3)cc2)NC(=N)N([C@H](CNC(=O)OC2CC2)c2ccc(Cl)c(-n3ncnc3C(F)F)c2)C1=O)C(F)(F)F` [Compound 392], for which the EC50 in data set [1] came to 24.3 nM. Further, in data set [2], the half-life at 1 uM is at least 6.58 h.

For `CC(C)(C[C@]1(c2ccc(-c3cnn(C4CC4)n3)cc2)NC(=N)N([C@H](COC(=O)NC2(C(F)(F)F)CC2)c2ccc(Cl)c(-c3ncnn3C(F)F)c2)C1=O)C(F)F` [Compound 154], the EC50 in data set [1] was found to be 19.7 nM. Also, the half-life at 1 uM in data set [2] was at least 6.58 h.

For the compound `CC(C)(C)C[C@]1(c2ccc(-n3cnnc3)cc2)NC(=N)N([C@H](COC(=O)NC2(C(F)(F)F)CC2)c2ccc(Cl)c(-n3ncnc3C(F)F)c2)C1=O` [Compound 359], the EC50 in data set [1] amounted to 424 nM. Further, in data set [2], the half-life at 1 uM is at least 6.58 h.

Take `CC(C)(C)C[C@]1(c2ccc(-c3cccc(S(C)(=O)=O)c3)c(F)c2)NC(=N)N([C@H](COC(=O)NC2(C(F)(F)F)CC2)c2ccc(Cl)c(-n3ncnc3C(F)F)c2)C1=O` [Compound 312]: the EC50 in data set [1] amounted to 27.8 nM. The compound also came in with a half-life at 1 uM in data set [2] of at least 6.58 h.

In the case of `CC(C)(C)C[C@]1(c2ccc(-c3ncccn3)cc2)NC(=N)N([C@H](COC(=O)NC2(C(F)(F)F)CC2)c2ccc(Cl)c(-c3ncn[nH]3)c2)C1=O` [Compound 105], the EC50 in data set [1] stood at 36.7 nM. Also, the half-life at 1 uM in data set [2] is at least 6.58 h.

Turning to `C[C@H](NC(=O)OC[C@H](c1ccc(Cl)c(-n2ncnc2C(F)F)c1)N1C(=N)N[C@](CC(C)(C)C)(c2ccc(-c3cn(C4(C(F)(F)F)CC4)nn3)cc2)C1=O)C(F)(F)F` [Compound 363], the EC50 in data set [1] was determined as 11.7 nM. Further, the half-life at 1 uM in data set [2] was at least 6.58 h.

As to `CC(C)(C)C[C@]1(c2ccc(-c3cnn(C(F)F)c3)cc2)NC(=N)N([C@H](COC(=O)N2CC(C(F)F)C2)c2ccc(Cl)c(-c3ncn[nH]3)c2)C1=O` [Compound 99], the EC50 in data set [1] was 65.7 nM.

With `CC(C)(C)C[C@]1(c2ccc(-c3cnn(C(F)F)c3)cc2)NC(=N)N([C@H](COc2ccc(F)cc2F)c2ccc(Cl)c(-n3ncnc3C(F)F)c2)C1=O` [Compound 365], the 50% effective concentration (EC50) in data set [1] amounted to 143 nM.

Take `CC(C)(C)C[C@]1(c2ccc(-c3cnn(C(F)F)c3)cc2)NC(=N)N([C@H](COC(=O)N2CC(F)(F)C2)c2ccc(Cl)c(-n3cncn3)c2)C1=O` [Compound 240]: the EC50 in data set [1] worked out at 5.06 nM.

Regarding `[H]/N=C1\N[C@](CC(C)(C)C)(c2ccc(-c3cnn(C(F)F)c3)cc2)C(=O)N1[C@H](COC(=O)NC1CC1)c1ccc(Cl)c(-c2nncs2)c1` [Compound 39], the EC50 in data set [1] came out at 29.8 nM.

`CC(C)(C)C[C@]1(c2ccc(-c3cnccn3)cc2)NC(=N)N([C@H](COC(=O)NC2CC2)c2ccc(Cl)c(-c3ncn[nH]3)c2)C1=O` [Compound 28]: the EC50 in data set [1] stood at 91.7 nM.

The values are drawn from patent US10774053B2, “HIV protease inhibitors” (Gilead Sciences, Inc., priority 2017, dated 2020).
